Measurements from paper PMC6508865, “Dynamics of thymol dietary supplementation in quail (Coturnix japonica): Linking bioavailability, effects on egg yolk total fatty acids and performance traits” (PLoS ONE, 2019).

Key:
[1] = system: female Japanese quail (Coturnix japonica); experiment: Total fatty acid analysis in egg yolks (GC/MS of FAME); type: in vivo; details: for egg yolk SFA reduction disappeared after post-supplementation / persistence of reduced egg yolk 16:0 concentration after post-supplementation / persistence of reduced egg yolk 18:0 concentration after post-supplementation: 21 days of pS
Source text: All birds continued receiving a basal diet between 85 and 100 days of age and all variables (see below for details) were registered along this period (Pre-supplementation period, Fig 1). […] Once finished the S period, half of the quail were slaughtered for histological analysis (n = 25; Slaughter 1, Fig 1) and the other half were subjected to a pS period of 21 days, during which all females received the BASAL diet (pS, Fig 1). After this period, the remaining 25 animals were also slaughtered for histological analysis (Slaughter 2, Fig 1). In this way, we assessed whether THY induced changes in variables indicative of tissue damage and if so, whether the potential damages could reverse after 3 weeks of supplement withdrawal.
To assess changes in egg yolk total FA composition, egg physical characteristics, laying rate, body weight, feed intake and general welfare, during the S and pS periods, five sampling points were defined (Sample points, Fig 1): one initial sample point (at 0 days of S); three sample points during the S period (at 7, 14 and 28 days of S); and one sample point at the end of the pS period (21 days of pS). It should be noted that for determinations of THY concentration, eggs and quail droppings were collected offset from the other variables measured by 2 days, thus were collected on days 2, 9, 16, and 26 days of S, and 17 days of pS, respectively.
Eggs were obtained at each sample point (Sample points, Fig 1) and stored at -20°C until yolk total fatty acids analysis. Lipids were extracted from the yolk following homogenization in a suitable excess of chloroform/methanol (2:1 v/v). The solvents were removed under reduced pressure in a rotary evaporator. Lipids were subjected to alkaline saponification (1 mol/L potassium hydroxide in methanol), and the unsaponifiable matter was extracted with n-hexane. The fatty acid methyl esters (FAMEs) were prepared by transmethylation through treatment with 1 mol/L sulfuric acid in methanol and analyzed by gas chromatography/mass spectrometry (GC/MS). All chemicals used in this study were reagent-grade commercial products. FAMEs were analyzed by gas chromatography on a 60 m fused capillary column with an internal diameter of 0.25 mm (PerkinElmer Elite-WAX Polyethylene Glycol). The analysis was performed on a PerkinElmer Clarus® 600 GC/MS system equipped with a flame ionization detector (Waltham, MA, USA). […] The injection port temperature was 250°C and the detector temperature was 250°C. […] Peak identification was carried out by comparing the known retention times for the fatty acids reported with the temperature program and the chromatographic system used.

[2] = system: female quail; design: method as in ref 41 = [41]; 41 Labaque MC , Kembro JM , Luna A , Marin RH . Effects of thymol feed supplementation on female Japanese quail ( Coturnix coturnix ) behavioral fear response . Anim Feed Sci Technol . 2013; 183 ( 1–); details: THY2, 2 g of THY per kg of feed; cited from earlier work
[3] = system: quail; design: method as in PMID 28474397; details: THY6, 6.25 g of THY per kg of feed; cited from earlier work
[4] = THY6, 6.25 g of thymol/kg of feed
[5] = all THY supplemented diets (2, 4, 6.25 g/kg of feed)

Cc1ccc(C(C)C)c(O)c1 [THY, 2 isopropyl-5-methylphenol]
effect on egg yolk MUFA ([1]; 2, 4, 6.25 g of thymol/kg of feed, diet, time of sampling or interaction): No differences | supplementation time by which reduced egg yolk 16:0 (palmitic acid) concentration was achieved ([1]; THY2, 2 g of thymol/kg of feed): 28 days of S | supplementation time by which reduced egg yolk 18:0 (stearic acid) concentration was achieved ([1]; THY2, 2 g of thymol/kg of feed): 28 days of S | supplementation time required for increasing egg yolk 22:5 (docosapentaenoic acid) ([1]; THY2, 2 g of thymol/kg of feed): 14 days of S | supplementation time required to reduce egg yolk SFA concentration ([1]; THY2, 2 g of thymol/kg of feed): 28 days of S | egg yolk SFA reduction disappeared after post-supplementation ([1]; THY2, 2 g of thymol/kg of feed): disappeared | persistence of reduced egg yolk 16:0 concentration after post-supplementation ([1]; THY2, 2 g of thymol/kg of feed): returned to initial levels | persistence of reduced egg yolk 18:0 concentration after post-supplementation ([1]; THY2, 2 g of thymol/kg of feed): continued | effect on egg yolk PUFA concentration ([1]; THY2, 2 g of thymol/kg of feed, S period): failed to increase PUFA | effect on egg yolk 16:1 (palmitoleic acid) ([1]; THY2, 2 g of thymol/kg of feed, by 7 and 14 days of S): transient decrease | day of supplementation by which egg yolk polyunsaturated fatty acids increased ([1]; THY4, 4 g of thymol/kg of feed): 14 day of supplementation | supplementation time by which reduced egg yolk 16:0 (palmitic acid) concentration was achieved ([1]; THY4, 4 g of thymol/kg of feed): 14 days of S | supplementation time by which reduced egg yolk 18:0 (stearic acid) concentration was achieved ([1]; THY4, 4 g of thymol/kg of feed): 14 days of S | supplementation time from which egg yolk 18:3 (linolenic acid) concentration was higher ([1]; THY4, 4 g of thymol/kg of feed): 14 days of S | supplementation time from which egg yolk 20:4 (arachidonic acid) concentration was higher ([1]; THY4, 4 g of thymol/kg of feed): 14 days of S | supplementation time required for increasing egg yolk 22:5 (docosapentaenoic acid) ([1]; THY4, 4 g of thymol/kg of feed): 14 days of S | supplementation time required to reduce egg yolk SFA concentration ([1]; THY4, 4 g of thymol/kg of feed): 14 days of S | egg yolk SFA reduction disappeared after post-supplementation ([1]; THY4, 4 g of thymol/kg of feed): not | persistence of reduced egg yolk 16:0 concentration after post-supplementation ([1]; THY4, 4 g of thymol/kg of feed): continued | persistence of reduced egg yolk 18:0 concentration after post-supplementation ([1]; THY4, 4 g of thymol/kg of feed): continued | effect on egg yolk PUFA concentration ([1]; THY4, 4 g of thymol/kg of feed, S period and 21 days of pS): induced PUFA increments that remained enhanced even at 21 days of pS | effect on egg yolk 16:1 (palmitoleic acid) ([1]; THY4, 4 g of thymol/kg of feed, at 21 days of pS): transient decrease | day of supplementation by which egg yolk polyunsaturated fatty acids increased [1, 4]: 14 day of supplementation | supplementation time by which reduced egg yolk 16:0 (palmitic acid) concentration was achieved [1, 4]: 14 days of S | supplementation time by which reduced egg yolk 18:0 (stearic acid) concentration was achieved [1, 4]: 14 days of S | supplementation time from which egg yolk 18:3 (linolenic acid) concentration was higher [1, 4]: 14 days of S | supplementation time from which egg yolk 20:4 (arachidonic acid) concentration was higher [1, 4]: 14 days of S | supplementation time required for increasing egg yolk 22:5 (docosapentaenoic acid) [1, 4]: 7 days of S | egg yolk SFA reduction disappeared after post-supplementation [1, 4]: not | persistence of reduced egg yolk 16:0 concentration after post-supplementation [1, 4]: continued | persistence of reduced egg yolk 18:0 concentration after post-supplementation [1, 4]: returned to initial levels | effect on egg yolk PUFA concentration ([1]; THY6, 6.25 g of thymol/kg of feed, S period and 21 days of pS): induced PUFA increments that remained enhanced even at 21 days of pS | effect on egg yolk 16:1 (palmitoleic acid) ([1]; THY6, 6.25 g of thymol/kg of feed, at 21 days of pS): transient decrease | supplementation time required to reduce egg yolk SFA concentration ([1]; THY6, 6.25 g of thymol/kg of feed, reduction of even greater magnitude): 14 days of S | supplementation time from which egg yolk 20:5 (eicosapentaenoic acid) was increased [1, 5]: 7 days of S | supplementation time from which egg yolk 22:6 (docosahexaenoic acid) was increased [1, 5]: 7 days of S | bird's locomotor activity [2]: without affecting | female quail fear responses when exposed to stressful situations [2]: reduces female quail fear responses | PUFA and SFA in yolk total fatty acids and triglycerides of the quail fertile egg [3]: enhances PUFA deposition to the detriment of SFA
